Consider 10 compounds from US20090306133A1, “New Acetyl Coenzyme A Carboxylase (ACC) Inhibitors And Uses In Treatments Of Obesity And Diabetes Mellitus - 087” (ASTRAZENECA AB, priority 2007, published 2009).

The target of experiment [1] is Human recombinant Acetyl-CoA Carboxylase 1 (ACC1) (Homo sapiens, UniProt Q13085). Description: Assay Y: ACC1 inhibition, inorganic phosphate (Malachite Green). The class given is biochemical. To be noted: Assay Y: room temperature, 3 hr, 15 min preincubation. The gist of the method: (§1)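 Enzyme preincubated with compound 15 min before substrate addition; reaction run 3 h, then phosphate detected with Malachite Green at 670 nm after 10 min at room temperature. Triplicate 10-point titrations; IC50 by non-linear four-parameter curve fitting.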

The target of experiment [2] is Human recombinant Acetyl-CoA Carboxylase 2 (ACC2) (Homo sapiens, UniProt O00763). Description: Assay Y: ACC2 inhibition, inorganic phosphate (Malachite Green). The following applies: Assay Y: room temperature, 3 hr, 15 min preincubation. It counts as biochemical. The essentials:
as §1

A value given as a limit tells only on which side of the number the result lay.

Chain of Human recombinant Acetyl-CoA Carboxylase 2 (ACC2) (O00763 whole entry): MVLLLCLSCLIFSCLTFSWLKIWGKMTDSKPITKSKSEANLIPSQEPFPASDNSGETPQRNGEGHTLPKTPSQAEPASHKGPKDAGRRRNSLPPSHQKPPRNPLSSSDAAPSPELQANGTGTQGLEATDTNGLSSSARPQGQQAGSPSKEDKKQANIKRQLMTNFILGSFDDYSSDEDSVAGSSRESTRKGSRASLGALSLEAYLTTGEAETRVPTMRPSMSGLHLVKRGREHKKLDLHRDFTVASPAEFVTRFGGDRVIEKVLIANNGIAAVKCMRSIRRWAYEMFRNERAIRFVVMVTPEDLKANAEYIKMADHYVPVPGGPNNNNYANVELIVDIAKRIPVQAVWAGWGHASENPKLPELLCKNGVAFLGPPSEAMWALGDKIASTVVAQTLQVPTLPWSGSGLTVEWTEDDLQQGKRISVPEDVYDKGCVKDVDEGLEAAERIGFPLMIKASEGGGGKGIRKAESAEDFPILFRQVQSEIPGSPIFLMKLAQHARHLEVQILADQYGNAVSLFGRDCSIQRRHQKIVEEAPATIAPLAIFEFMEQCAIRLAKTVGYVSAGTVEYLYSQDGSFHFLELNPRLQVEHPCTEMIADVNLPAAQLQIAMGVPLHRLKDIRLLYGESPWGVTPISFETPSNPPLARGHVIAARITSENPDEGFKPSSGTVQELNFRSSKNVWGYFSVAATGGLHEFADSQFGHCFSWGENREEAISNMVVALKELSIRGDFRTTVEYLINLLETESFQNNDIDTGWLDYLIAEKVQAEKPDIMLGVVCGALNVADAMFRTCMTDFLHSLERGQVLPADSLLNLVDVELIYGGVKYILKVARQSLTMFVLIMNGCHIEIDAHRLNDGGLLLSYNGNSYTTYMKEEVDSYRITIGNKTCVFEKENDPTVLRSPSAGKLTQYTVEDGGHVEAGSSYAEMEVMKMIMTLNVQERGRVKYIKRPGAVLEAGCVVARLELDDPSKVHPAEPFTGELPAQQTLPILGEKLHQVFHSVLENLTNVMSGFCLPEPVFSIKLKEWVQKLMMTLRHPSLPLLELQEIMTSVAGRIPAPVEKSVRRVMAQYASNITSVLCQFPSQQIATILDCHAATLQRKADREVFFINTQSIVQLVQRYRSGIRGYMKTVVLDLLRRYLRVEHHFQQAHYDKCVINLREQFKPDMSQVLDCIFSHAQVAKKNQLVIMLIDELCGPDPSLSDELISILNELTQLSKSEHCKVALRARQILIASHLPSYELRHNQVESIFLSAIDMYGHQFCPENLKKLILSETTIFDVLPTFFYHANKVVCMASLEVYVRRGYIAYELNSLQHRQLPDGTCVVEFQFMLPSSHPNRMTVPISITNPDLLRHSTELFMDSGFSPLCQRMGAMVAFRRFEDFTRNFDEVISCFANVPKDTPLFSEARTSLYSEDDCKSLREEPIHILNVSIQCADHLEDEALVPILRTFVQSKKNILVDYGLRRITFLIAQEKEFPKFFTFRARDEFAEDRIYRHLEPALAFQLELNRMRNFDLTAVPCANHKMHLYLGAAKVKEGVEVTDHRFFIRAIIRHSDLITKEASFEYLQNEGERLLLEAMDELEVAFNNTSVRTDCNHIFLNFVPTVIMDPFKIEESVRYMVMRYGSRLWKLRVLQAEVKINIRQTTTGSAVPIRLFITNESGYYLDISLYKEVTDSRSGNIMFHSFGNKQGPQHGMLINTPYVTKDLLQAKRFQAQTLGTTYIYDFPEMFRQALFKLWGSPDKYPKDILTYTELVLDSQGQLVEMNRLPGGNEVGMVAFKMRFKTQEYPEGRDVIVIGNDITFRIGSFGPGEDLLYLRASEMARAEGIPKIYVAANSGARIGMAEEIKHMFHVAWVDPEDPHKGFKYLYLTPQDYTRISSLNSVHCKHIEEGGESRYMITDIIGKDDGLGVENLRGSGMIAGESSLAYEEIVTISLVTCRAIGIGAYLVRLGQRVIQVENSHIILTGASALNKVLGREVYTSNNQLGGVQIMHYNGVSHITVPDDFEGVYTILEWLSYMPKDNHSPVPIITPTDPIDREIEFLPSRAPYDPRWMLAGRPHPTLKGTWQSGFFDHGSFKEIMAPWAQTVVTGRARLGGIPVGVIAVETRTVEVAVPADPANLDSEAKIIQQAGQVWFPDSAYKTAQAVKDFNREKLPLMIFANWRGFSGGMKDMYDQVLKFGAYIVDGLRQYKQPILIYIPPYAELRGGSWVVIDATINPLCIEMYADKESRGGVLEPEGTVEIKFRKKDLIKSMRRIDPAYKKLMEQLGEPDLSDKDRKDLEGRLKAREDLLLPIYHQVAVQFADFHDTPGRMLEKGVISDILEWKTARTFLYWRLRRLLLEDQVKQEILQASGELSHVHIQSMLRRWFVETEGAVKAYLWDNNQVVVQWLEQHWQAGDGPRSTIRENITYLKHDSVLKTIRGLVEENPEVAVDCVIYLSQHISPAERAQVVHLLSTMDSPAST

Regarding `CC(C)(C)OC(=O)NC[C@H]1CC[C@H](CN(CC#N)S(=O)(=O)c2ccc3ccccc3c2)CC1` [Example 83, tert-Butyl [(trans-4-{[(cyanomethyl)(2-naphthylsulfonyl)amino]methyl}cyclohexyl)-methyl]carbamate], the half-inhibitory concentration (IC50) is greater than 20000 nM in experiment [1] and 3270 nM in experiment [2].

Take `CCOC(=O)NC[C@H]1CC[C@H](CNC(=O)c2cc(-c3ccccc3OC)nc3ccccc23)CC1` [Example 31, Ethyl ({trans-4-[({[2-(2-methoxyphenyl)quinolin-4-yl]carbonyl}amino)methyl]-cyclohexyl}methyl)carbamate]: the IC50 in experiment [1] was greater than 20000 nM; in experiment [2], 3560 nM.

For the compound `CN(C)c1ccc(-c2cc(C(=O)NC[C@H]3CC[C@H](CNC(=O)OC(C)(C)C)CC3)c3ccccc3n2)cn1` [Example 11, tert-Butyl [(trans-4-{[({2-[6-(dimethylamino)pyridin-3-yl]quinolin-4-yl}carbonyl)-amino]methyl}cyclohexyl)methyl]carbamate], the IC50 turned out to be 1220 nM in experiment [1] and 100 nM in experiment [2].

Take `CN1CCN(c2ccc(-c3cc(C(=O)NC[C@H]4CC[C@H](CNC(=O)OCC5CCO5)CC4)c4ccccc4n3)cn2)CC1` (relative stereo) [Example 111, Oxetan-2-ylmethyl-[(trans-4-{[({2-[6-(4-methylpiperazin-1-yl)pyridin-3-yl]quinolin-4-yl}carbonyl)amino]methyl}cyclohexyl)methyl]carbamate]: the IC50 in experiment [1] turned out to be 3180 nM; in experiment [2] it was 710 nM.

Consider `COC(=O)NCc1cccc(-c2cc(C(=O)NC[C@H]3CC[C@H](CNC(=O)OC(C)(C)C)CC3)c3ccccc3n2)c1` [Example 101, Methyl [3-(4-{[(trans-4-{[(tert-butoxycarbonyl)amino]methyl}cyclohexyl)methyl]-carbamoyl}quinolin-2-yl)benzyl]carbamate], for which the figures for the IC50 in experiment [1] and in experiment [2] were 2210 nM and 150 nM, respectively.

As to `CC(C)(C)OC(=O)NC[C@H]1CC[C@H](CNS(=O)(=O)c2cc(-c3ccccc3)nc3ccccc23)CC1` [Example 95, tert-Butyl {[trans-4-({[(2-phenylquinolin-4-yl)sulfonyl]amino}methyl)cyclohexyl]-methyl}carbamate], the IC50 stood at 2140 nM in experiment [1] and 980 nM in experiment [2].

For the compound `CC(C)(C)OC(=O)NC[C@H]1CC[C@H](CNC(=O)c2cc(-c3ccc(CN)cc3)nc3ccccc23)CC1` [Example 92, tert-Butyl [(trans-4-{[({2-[4-(aminomethyl)phenyl]quinolin-4-yl}carbonyl)amino]-methyl}cyclohexyl)methyl]carbamate acetate], the IC50 came to 260 nM in experiment [1] and 50 nM in experiment [2].

As to `Cc1ccc(-c2cc(C(=O)NC[C@H]3CC[C@H](CNC(=O)OC(C)(C)C)CC3)c3ccccc3n2)cc1` [Example 20, tert-Butyl ({trans-4-[({[2-(4-methylphenyl)quinolin-4-yl]carbonyl}amino)methyl]-cyclohexyl}methyl)carbamate], the results for the 50% inhibitory concentration (IC50) in experiment [1] and in experiment [2] were 1290 nM and 620 nM, respectively.

In the case of `CC(C)(C)OC(=O)NC[C@H]1CC[C@H](CNC(=O)c2cc(-c3ccc(N4CC[C@@H](O)C4)nc3)nc3ccccc23)CC1` [Example 147, tert-Butyl{[trans-4-({[(2-{6-[(3R)-3-hydroxypyrrolidin-1-yl]pyridin-3-yl}quinolin-4-yl)carbonyl]amino}-methyl)cyclohexyl]-methyl}carbamate], the concentration for half-maximal inhibition (IC50) in experiment [1] came out at 2590 nM; in experiment [2] it was 30 nM.

Turning to `CCOC(=O)NC[C@H]1CC[C@H](CNC(=O)c2cc(-c3ccc(F)cc3)nc3ccccc23)CC1` [Example 17, Ethyl ({trans-4-[({[2-(4-fluorophenyl)quinolin-4-yl]carbonyl}amino)methyl]cyclo-hexyl}methyl)carbamate], the half-inhibitory concentration (IC50) in experiment [1] is greater than 20000 nM; in experiment [2] it was 1940 nM.

What is called IC50 is the midpoint of a concentration-inhibition curve.
